Values quoted from earlier work in patent publication US10130562B2, “Monomer mixture for the preparation of dental materials” (Ivoclar Vivadent AG, priority 2014, dated 2018).

Assays:
rat = conditions: in vivo

SMILES: C=C(C)C(=O)OCCOCCOCCOC(=O)C(=C)C [TEGDMA, triethylene glycol dimethacrylate]
- gene mutations in the DNA molecules of mammals (DNA molecules of mammals): leads to gene mutations
- LD50 (rat): > 5000 mg/kg
